Measured values reported in US20260048046A1, “METHOD FOR IMPROVING GROWTH PERFORMANCE IN FEEDLOT CATTLE” (Elanco US Inc., priority 2022, published 2026).

Key:
beef feedlot cattle = assay: 56-d study: animal mobility (NAMI mobility score); format: in vivo; details: for Percentage of steers, mobility score 1, Lairage / Percentage of steers, mobility score 2, Lairage / Percentage of steers, mobility score >2, Lairage / Percentage of steers, mobility score 1, Pen / Percentage of steers, mobility score 2, Pen / Percentage of steers, mobility score >2, Pen / Percentage of steers, mobility score 1, Loadout / Percentage of steers, mobility score 2, Loadout / Percentage of steers, mobility score >2, Loadout: final 56 d; for Percentage of steers, mobility score 1, Lairage / Percentage of steers, mobility score 2, Lairage / Percentage of steers, mobility score >2, Lairage: antemortem inspection at the packing plant; for Percentage of steers, mobility score 1, Pen / Percentage of steers, mobility score 2, Pen / Percentage of steers, mobility score >2, Pen: approx. 1 wk prior to harvest in home pens; for Percentage of steers, mobility score 1, Loadout / Percentage of steers, mobility score 2, Loadout / Percentage of steers, mobility score >2, Loadout: immediately prior to loading into trucks
Procedure: Animal mobility assessments were conducted three times prior to harvest at: 1) approximately 1 week prior to harvest while cattle were in their home pens; 2) after collection of final pen weights and immediately prior to loading into trucks for slaughter; and 3) at antemortem inspection during lairage at the packing plant. The mobility scorer used the North American Meat Institute's (NAMI) mobility scoring system (Edwards-Callaway et al., 2017) to evaluate cattle mobility.
The label claim variable of cumulative NH3 gas emissions over the treatment period normalized by final BW (with d −59 BW as a covariate) for the period and HCW (g of gas kg^−1 of BW or g of gas kg^−1 HCW) was determined by utilizing NH3 gas emissions equations developed from the LUB clinical effectiveness study (FDA-FOI, 2018) and validated using animals of similar BW as described by Brown et al. (2019). The pen was the experimental unit for each outcome. Differences were deemed significant using a two-sided test at Ptrt≤0.05, however, a less stringent significance threshold of Ptrt≤0.10 was used for abnormal health observations. Fixed effect of treatment and random effects of time replicate and block within time replicate were included in the model. Discrete variables were analyzed using a generalized linear mixed model, Proc GLIMMIX SAS version 9.4 unless there were convergence problems due to sparseness of data. A binomial distribution was assumed and a logit link used in the analysis. Contrasts were constructed between the CON group and each non-CON dosage group, and differences were deemed significant at Pdose≤0.05. If convergence problems arose due to sparseness of data, Fisher's exact test (binomial data; Proc FREQ in SAS) or Wilcoxon's rank-sum test (categorical data; Proc NARIWAY in SAS) was used to evaluate differences between the CON group and the non-CON dosage groups. In all cases except for health observations, differences were deemed significant at Ptrt≤0.05 for these primary discrete variables. Additionally, non-CON dosage groups were compared to one another using a significance level of Pdose≤0.05. A less stringent Ptrt≤0.10 level of significance was used for health observations.

beef steers = assay: Lubabegron removal period study: animal mobility at harvest; format: in vivo, cattle; details: for Mobility Score 1, number of animals / Mobility Score 2, number of animals / Mobility Score 3, number of animals / Mobility Score 4, number of animals: Lubabegron 3.5 mg/kg, in lairage at harvest
Procedure: Seven hundred English x Continental cross steers (initial BW=531±8.8 kg) were used in a randomized complete block design with seven treatments. Pen served as the experimental unit. […] Animals were managed as two-time replications with each replication containing five blocks (7 pens/block and 10 steers/pen). All ten blocks started and ended within 48 hours of each other. Cattle were weighed by pen using a 45,000-kg capacity pen scale (Model WI-130, Avery Weigh-Tronix LLC, Fairmont, MN; 3.66 m×21.34 m). All treatments were on feed for 71 d with harvest scheduled for 72 d. Because of an impending weather event, cattle were weighed to obtain a final BW one d early. Cattle were placed on their respective ration for the additional d and then shipped to the harvest facility the following morning.
657 head were transported to a harvest facility approximately 495 km from the research facility. Animals were scored for animal mobility using the North American Meat Institute (NAMI, 2015) scoring scale described by Edwards-Callaway et al., (2017) while in lairage. […] Experienced staff collected an ear tag number, plant identification (ID), and carcass sequence and applied a unique carcass ID. Data collected on the kill floor included HCW, instances of excessive trim (>approximately 9 kg), and prevalence of liver abscess (Brown et al., 1975). Other carcass measures were obtained via instrument grading.
Continuous variables were analyzed using the Mixed procedure of SAS (version 9.4; SAS Institute, Cary, NC). Block served as a random effect whereas treatment was fixed. Initial body weight was used to describe the uniformity of cattle randomized to treatment and used as a covariate when appropriate. Data were calculated with deads and removals excluded. Linear and quadratic effects of lubabegron removal were conducted as were individual comparisons for duration of removal (i.e., 0 vs 2 d; 0 vs 4 d, 0 vs 6 d; 0 vs 8 d and 0 vs 16 d). Fisher's Exact test was evaluated on mobility scores 1 and 2. No test was conducted on mobility scores of 3 or 4 because no scores were reported. Simple means and standard deviation of the tissues collected for the 5 animals were calculated.

Compound: CC(C)(Cc1ccc(Oc2ncccc2C#N)cc1)NC[C@H](O)COc1ccccc1-c1cccs1 [LUB, 2-{4-[2-({(2S)-2-Hydroxy-3-[2-(2-thienyl)phenoxy]propyl}amino)-2-methylpropyl]phenoxy}nicotinonitrile]
- Percentage of steers, mobility score 1, Lairage (beef feedlot cattle; 1.5 mg·kg^−1 DM): 80.2%
- Percentage of steers, mobility score 2, Lairage (beef feedlot cattle; 1.5 mg·kg^−1 DM): 11.8%
- Percentage of steers, mobility score >2, Lairage (beef feedlot cattle; 1.5 mg·kg^−1 DM): 8.0%
- Percentage of steers, mobility score 1, Pen (beef feedlot cattle; 1.5 mg·kg^−1 DM): 85.0%
- Percentage of steers, mobility score 2, Pen (beef feedlot cattle; 1.5 mg·kg^−1 DM): 11.4%
- Percentage of steers, mobility score >2, Pen (beef feedlot cattle; 1.5 mg·kg^−1 DM): 3.6%
- Percentage of steers, mobility score 1, Loadout (beef feedlot cattle; 1.5 mg·kg^−1 DM): 76.6%
- Percentage of steers, mobility score 2, Loadout (beef feedlot cattle; 1.5 mg·kg^−1 DM): 21.4%
- Percentage of steers, mobility score >2, Loadout (beef feedlot cattle; 1.5 mg·kg^−1 DM): 2.0%
- Percentage of steers, mobility score 1, Lairage (beef feedlot cattle; 3.5 mg·kg^−1 DM): 81.7%
- Percentage of steers, mobility score 2, Lairage (beef feedlot cattle; 3.5 mg·kg^−1 DM): 12.1%
- Percentage of steers, mobility score >2, Lairage (beef feedlot cattle; 3.5 mg·kg^−1 DM): 6.2%
- Percentage of steers, mobility score 1, Pen (beef feedlot cattle; 3.5 mg·kg^−1 DM): 85.9%
- Percentage of steers, mobility score 2, Pen (beef feedlot cattle; 3.5 mg·kg^−1 DM): 10.4%
- Percentage of steers, mobility score >2, Pen (beef feedlot cattle; 3.5 mg·kg^−1 DM): 3.7%
- Percentage of steers, mobility score 1, Loadout (beef feedlot cattle; 3.5 mg·kg^−1 DM): 73.7%
- Percentage of steers, mobility score 2, Loadout (beef feedlot cattle; 3.5 mg·kg^−1 DM): 23.1%
- Percentage of steers, mobility score >2, Loadout (beef feedlot cattle; 3.5 mg·kg^−1 DM): 3.2%
- Percentage of steers, mobility score 1, Lairage (beef feedlot cattle; 5.5 mg·kg^−1 DM): 80.9%
- Percentage of steers, mobility score 2, Lairage (beef feedlot cattle; 5.5 mg·kg^−1 DM): 12.6%
- Percentage of steers, mobility score >2, Lairage (beef feedlot cattle; 5.5 mg·kg^−1 DM): 6.5%
- Percentage of steers, mobility score 1, Pen (beef feedlot cattle; 5.5 mg·kg^−1 DM): 86.9%
- Percentage of steers, mobility score 2, Pen (beef feedlot cattle; 5.5 mg·kg^−1 DM): 8.3%
- Percentage of steers, mobility score >2, Pen (beef feedlot cattle; 5.5 mg·kg^−1 DM): 4.8%
- Percentage of steers, mobility score 1, Loadout (beef feedlot cattle; 5.5 mg·kg^−1 DM): 71.3%
- Percentage of steers, mobility score 2, Loadout (beef feedlot cattle; 5.5 mg·kg^−1 DM): 25.0%
- Percentage of steers, mobility score >2, Loadout (beef feedlot cattle; 5.5 mg·kg^−1 DM): 3.7%
- Cattle scoring a mobility score of 1 or 2 (beef feedlot cattle; 56 d, all treatments, at all assessment times): ≥ 92%
- Animals receiving abnormal mobility scores of >2, across treatments (beef feedlot cattle; 56 d, any assessment time point prior to harvest): not different across treatments
- Percent of cattle scored 1 (mobility), differences among treatments (beef feedlot cattle; 56 d, any assessment time, Ptrt≥0.17): No differences
- Percent of cattle receiving mobility scores of 1 or 2, treatment differences (beef feedlot cattle; 56 d, at any time, Ptrt≥0.170): No treatment differences
- Animal mobility when lubabegron was fed (beef steers; 3.5 mg/kg DM vs non-treated, P<0.25): No differences
- Mobility Score 1, number of animals (beef steers; removal duration 0 d): 92 n
- Mobility Score 2, number of animals (beef steers; removal duration 0 d): 3 n
- Mobility Score 3, number of animals (beef steers; removal duration 0 d): 0 n
- Mobility Score 4, number of animals (beef steers; removal duration 0 d): 0 n
- Mobility Score 1, number of animals (beef steers; removal duration 2 d): 95 n
- Mobility Score 2, number of animals (beef steers; removal duration 2 d): 0 n
- Mobility Score 3, number of animals (beef steers; removal duration 2 d): 0 n
- Mobility Score 4, number of animals (beef steers; removal duration 2 d): 0 n
- Mobility Score 1, number of animals (beef steers; removal duration 4 d): 91 n
- Mobility Score 2, number of animals (beef steers; removal duration 4 d): 2 n
- Mobility Score 3, number of animals (beef steers; removal duration 4 d): 0 n
- Mobility Score 4, number of animals (beef steers; removal duration 4 d): 0 n
- Mobility Score 1, number of animals (beef steers; removal duration 6 d): 89 n
- Mobility Score 2, number of animals (beef steers; removal duration 6 d): 4 n
- Mobility Score 3, number of animals (beef steers; removal duration 6 d): 0 n
- Mobility Score 4, number of animals (beef steers; removal duration 6 d): 0 n
- Mobility Score 1, number of animals (beef steers; removal duration 8 d): 87 n
- Mobility Score 2, number of animals (beef steers; removal duration 8 d): 4 n
- Mobility Score 3, number of animals (beef steers; removal duration 8 d): 0 n
- Mobility Score 4, number of animals (beef steers; removal duration 8 d): 0 n
- Mobility Score 1, number of animals (beef steers; removal duration 16 d): 90 n
- Mobility Score 2, number of animals (beef steers; removal duration 16 d): 5 n
- Mobility Score 3, number of animals (beef steers; removal duration 16 d): 0 n
- Mobility Score 4, number of animals (beef steers; removal duration 16 d): 0 n
- Animal mobility with increased duration of removal (beef steers; lubabegron 3.5 mg/kg DM, removal 0 to 16 d, P<0.06): tended (P<0.06) to be reduced
